Measurements as given in patent US20260285850A1, “SUBSTITUTED OXAZOLIDINONES AND IMIDAZOLINONES AS HERBICIDES” (FMC CORPORATION, priority 2023, published 2026).

Key:
Assay type in all cases: in vivo
[1] = system: sedge, umbrella (small-flower umbrella sedge, Cyperus difformis); assay: Test B flooded paddy test, visual plant response rating 0-100; conditions: 250 g ai/ha, Flood, applied to paddy water, evaluated after 13 days
How it was run: (§1)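 In this flooded assay, 2-leaf seedlings received compound through the water layer, kept at 3 cm over the soil. Plants were held 13 days in a greenhouse and then visually compared with control pots.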

rice (Oryza sativa) = assay: as above; conditions: 250 g ai/ha, Flood, applied to paddy water, evaluated after 13 days
How it was run: as §1

[2] = system: ducksalad (Heteranthera limosa); assay: as above; conditions: 250 g ai/ha, Flood, applied to paddy water, evaluated after 13 days
How it was run: as §1

[3] = system: barnyardgrass (Echinochloa crusgalli); assay: as above; conditions: 250 g ai/ha, Flood, applied to paddy water, evaluated after 13 days
How it was run: as §1

[4] = system: ragweed (common ragweed, Ambrosia artemisiifolia); assay: Test A preemergence soil spray, visual injury rating 0-100; conditions: 10 days
How it was run: (§2)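 Grow plants in loam soil blended with sand. Apply formulated compound (non-phytotoxic solvent, surfactant) as a directed soil spray before emergence, or to plants at the one- to two-leaf stage after emergence. Hold in greenhouse 10 days, then rate injury visually versus untreated controls on a 0-100 scale.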

soybean (Glycine max) [5] = assay: as above; conditions: 10 days
How it was run: as §2

[6] = system: ryegrass, Italian (italian ryegrass, Lolium multiflorum); assay: as above; conditions: 10 days
How it was run: as §2

[7] = system: palmer (palmer amaranth, palmer pigweed, Amaranthus palmeri); assay: as above; conditions: 10 days
How it was run: as §2

kochia (Bassia scoparia) [8] = assay: as above; conditions: 10 days
How it was run: as §2

[9] = system: green foxtail (Setaria viridis); assay: as above; conditions: 10 days
How it was run: as §2

[10] = system: wheat (Triticum aestivum); assay: as above; conditions: 10 days
How it was run: as §2

corn (Zea mays) [11] = assay: as above; conditions: 10 days
How it was run: as §2

[12] = system: blackgrass (Alopecurus myosuroides); assay: as above; conditions: 10 days
How it was run: as §2

[13] = system: oat, wild (wild oat, Avena fatua); assay: as above; conditions: 10 days
How it was run: as §2

[14] = system: barnyardgrass (Echinochloa crus-galli); assay: as above; conditions: 10 days
How it was run: as §2

[15] = system: ragweed (common ragweed, Ambrosia artemisiifolia); assay: Test A postemergence application, visual injury rating 0-100
How it was run: as §2

soybean (Glycine max) [16] = assay: as above
How it was run: as §2

[17] = system: ryegrass, Italian (italian ryegrass, Lolium multiflorum); assay: as above
How it was run: as §2

[18] = system: palmer (palmer amaranth, palmer pigweed, Amaranthus palmeri); assay: as above
How it was run: as §2

kochia (Bassia scoparia) [19] = assay: as above
How it was run: as §2

[20] = system: green foxtail (Setaria viridis); assay: as above
How it was run: as §2

[21] = system: wheat (Triticum aestivum); assay: as above
How it was run: as §2

corn (Zea mays) [22] = assay: as above
How it was run: as §2

[23] = system: blackgrass (Alopecurus myosuroides); assay: as above
How it was run: as §2

[24] = system: oat, wild (wild oat, Avena fatua); assay: as above
How it was run: as §2

[25] = system: galium (catchweed bedstraw, Galium aparine); assay: as above
How it was run: as §2

[26] = system: barnyardgrass (Echinochloa crus-galli); assay: as above
How it was run: as §2

[27] = system: horseweed (Erigeron canadensis); assay: as above
How it was run: as §2

[28] = 62 g ai/ha, 0 = no effect, 100 = complete control
[29] = 62 g ai/ha, postemergence, 10 days, 0 = no effect, 100 = complete control
[30] = Postemergence, 16 g ai/ha, greenhouse 10 days, 0 no effect, 100 complete control

## CC1(C(=O)NC2CC=C(C(=O)NS(C)(=O)=O)C2)CN(c2cc(F)cc(F)c2)C(=O)O1 (racemic) [Compound 103]
[1]
  Plant response rating, Sedge, Umbrella (0 to 100 scale, 0 is no effect and 100 is complete control): 0
Rice (Oryza sativa)
  Plant response rating, Rice (0 to 100 scale, 0 is no effect and 100 is complete control): 0
[2]
  Plant response rating, Ducksalad (0 to 100 scale, 0 is no effect and 100 is complete control): 0
[3]
  Plant response rating, Barnyardgrass (0 to 100 scale, 0 is no effect and 100 is complete control): 0
[4]; 16 g ai/ha, 0 to 100 scale
  Ragweed plant response rating: 0
[4]; [28]
  Ragweed plant response rating (0-100): 0
Soybean (Glycine max) [5]; 16 g ai/ha, 0 to 100 scale
  Soybean plant response rating: 20
Soybean (Glycine max) [5]; [28]
  Soybean plant response rating (0-100): 20
[6]; 16 g ai/ha, 0 to 100 scale
  Ryegrass, Italian plant response rating: 0
[6]; [28]
  Ryegrass, Italian plant response rating (0-100): 40
[7]; 16 g ai/ha, 0 to 100 scale
  Pigweed, Palmer plant response rating: 0
[7]; [28]
  Pigweed, Palmer plant response rating (0-100): 80
Kochia (Bassia scoparia) [8]; 16 g ai/ha, 0 to 100 scale
  Kochia plant response rating: 0
Kochia (Bassia scoparia) [8]; [28]
  Kochia plant response rating (0-100): 50
[9]; 16 g ai/ha, 0 to 100 scale
  Foxtail, Green plant response rating: 20
[9]; [28]
  Foxtail, Green plant response rating (0-100): 40
[10]; 16 g ai/ha, 0 to 100 scale
  Wheat plant response rating: 0
[10]; [28]
  Wheat plant response rating (0-100): 60
Corn (Zea mays) [11]; 16 g ai/ha, 0 to 100 scale
  Corn plant response rating: 0
Corn (Zea mays) [11]; [28]
  Corn plant response rating (0-100): 10
[12]; 16 g ai/ha, 0 to 100 scale
  Blackgrass plant response rating: 0
[12]; [28]
  Blackgrass plant response rating (0-100): 0
[13]; 16 g ai/ha, 0 to 100 scale
  Oat, Wild plant response rating: 0
[13]; [28]
  Oat, Wild plant response rating (0-100): 0
[14]; 16 g ai/ha, 0 to 100 scale
  Barnyardgrass plant response rating: 0
[14]; [28]
  Barnyardgrass plant response rating (0-100): 10
[15]; [29]
  Ragweed plant response rating (0-100): 30
[15]; [30]
  Ragweed plant response rating (0 to 100 scale): 10
Soybean (Glycine max) [16]; [29]
  Soybean plant response rating (0-100): 40
Soybean (Glycine max) [16]; [30]
  Soybean plant response rating (0 to 100 scale): 10
[17]; [29]
  Ryegrass, Italian plant response rating (0-100): 30
[17]; [30]
  Ryegrass, Italian plant response rating (0 to 100 scale): 0
[18]; [29]
  Pigweed, Palmer plant response rating (0-100): 70
[18]; [30]
  Pigweed, Palmer plant response rating (0 to 100 scale): 60
Kochia (Bassia scoparia) [19]; [29]
  Kochia plant response rating (0-100): 80
Kochia (Bassia scoparia) [19]; [30]
  Kochia plant response rating (0 to 100 scale): 20
[20]; [29]
  Foxtail, Green plant response rating (0-100): 90
[20]; [30]
  Foxtail, Green plant response rating (0 to 100 scale): 0
[21]; [29]
  Wheat plant response rating (0-100): 70
[21]; [30]
  Wheat plant response rating (0 to 100 scale): 20
Corn (Zea mays) [22]; [29]
  Corn plant response rating (0-100): 80
Corn (Zea mays) [22]; [30]
  Corn plant response rating (0 to 100 scale): 10
[23]; [29]
  Blackgrass plant response rating (0-100): 40
[23]; [30]
  Blackgrass plant response rating (0 to 100 scale): 0
[24]; [29]
  Oat, Wild plant response rating (0-100): 20
[24]; [30]
  Oat, Wild plant response rating (0 to 100 scale): 0
[25]; [29]
  Galium plant response rating (0-100): 60
[25]; [30]
  Galium plant response rating (0 to 100 scale): 10
[26]; [29]
  Barnyardgrass plant response rating (0-100): 100
[26]; [30]
  Barnyardgrass plant response rating (0 to 100 scale): 50
[27]; [29]
  Horseweed plant response rating (0-100): 0
[27]; [30]
  Horseweed plant response rating (0 to 100 scale): 0
